Source: US20240228463A1, “SODIUM CHANNEL INHIBITORS AND METHODS OF DESIGNING SAME” (Genentech, Inc., priority 2021, published 2024)
Counter-ions that a name gives are not always drawn.

Target: T1, hNaV1.7 (Homo sapiens, UniProt Q15858)
T1 construct: expressed in transfected cells
Assay: Patch voltage clamp electrophysiology (EP), Syncropatch 384PE, Nav1.7 in CHO cells;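 note: Nav1.7 stably expressed from cDNA in CHO cells, holding potential of −50 mV kept for the entire experiment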
Assay type: cell-based
Conditions: hNaV1.7 EP_SP, holding potential −50 mV, inhibition based on 7.5 min compound incubation

T1 sequence (Q15858 1-1977 isoform Q15858-3): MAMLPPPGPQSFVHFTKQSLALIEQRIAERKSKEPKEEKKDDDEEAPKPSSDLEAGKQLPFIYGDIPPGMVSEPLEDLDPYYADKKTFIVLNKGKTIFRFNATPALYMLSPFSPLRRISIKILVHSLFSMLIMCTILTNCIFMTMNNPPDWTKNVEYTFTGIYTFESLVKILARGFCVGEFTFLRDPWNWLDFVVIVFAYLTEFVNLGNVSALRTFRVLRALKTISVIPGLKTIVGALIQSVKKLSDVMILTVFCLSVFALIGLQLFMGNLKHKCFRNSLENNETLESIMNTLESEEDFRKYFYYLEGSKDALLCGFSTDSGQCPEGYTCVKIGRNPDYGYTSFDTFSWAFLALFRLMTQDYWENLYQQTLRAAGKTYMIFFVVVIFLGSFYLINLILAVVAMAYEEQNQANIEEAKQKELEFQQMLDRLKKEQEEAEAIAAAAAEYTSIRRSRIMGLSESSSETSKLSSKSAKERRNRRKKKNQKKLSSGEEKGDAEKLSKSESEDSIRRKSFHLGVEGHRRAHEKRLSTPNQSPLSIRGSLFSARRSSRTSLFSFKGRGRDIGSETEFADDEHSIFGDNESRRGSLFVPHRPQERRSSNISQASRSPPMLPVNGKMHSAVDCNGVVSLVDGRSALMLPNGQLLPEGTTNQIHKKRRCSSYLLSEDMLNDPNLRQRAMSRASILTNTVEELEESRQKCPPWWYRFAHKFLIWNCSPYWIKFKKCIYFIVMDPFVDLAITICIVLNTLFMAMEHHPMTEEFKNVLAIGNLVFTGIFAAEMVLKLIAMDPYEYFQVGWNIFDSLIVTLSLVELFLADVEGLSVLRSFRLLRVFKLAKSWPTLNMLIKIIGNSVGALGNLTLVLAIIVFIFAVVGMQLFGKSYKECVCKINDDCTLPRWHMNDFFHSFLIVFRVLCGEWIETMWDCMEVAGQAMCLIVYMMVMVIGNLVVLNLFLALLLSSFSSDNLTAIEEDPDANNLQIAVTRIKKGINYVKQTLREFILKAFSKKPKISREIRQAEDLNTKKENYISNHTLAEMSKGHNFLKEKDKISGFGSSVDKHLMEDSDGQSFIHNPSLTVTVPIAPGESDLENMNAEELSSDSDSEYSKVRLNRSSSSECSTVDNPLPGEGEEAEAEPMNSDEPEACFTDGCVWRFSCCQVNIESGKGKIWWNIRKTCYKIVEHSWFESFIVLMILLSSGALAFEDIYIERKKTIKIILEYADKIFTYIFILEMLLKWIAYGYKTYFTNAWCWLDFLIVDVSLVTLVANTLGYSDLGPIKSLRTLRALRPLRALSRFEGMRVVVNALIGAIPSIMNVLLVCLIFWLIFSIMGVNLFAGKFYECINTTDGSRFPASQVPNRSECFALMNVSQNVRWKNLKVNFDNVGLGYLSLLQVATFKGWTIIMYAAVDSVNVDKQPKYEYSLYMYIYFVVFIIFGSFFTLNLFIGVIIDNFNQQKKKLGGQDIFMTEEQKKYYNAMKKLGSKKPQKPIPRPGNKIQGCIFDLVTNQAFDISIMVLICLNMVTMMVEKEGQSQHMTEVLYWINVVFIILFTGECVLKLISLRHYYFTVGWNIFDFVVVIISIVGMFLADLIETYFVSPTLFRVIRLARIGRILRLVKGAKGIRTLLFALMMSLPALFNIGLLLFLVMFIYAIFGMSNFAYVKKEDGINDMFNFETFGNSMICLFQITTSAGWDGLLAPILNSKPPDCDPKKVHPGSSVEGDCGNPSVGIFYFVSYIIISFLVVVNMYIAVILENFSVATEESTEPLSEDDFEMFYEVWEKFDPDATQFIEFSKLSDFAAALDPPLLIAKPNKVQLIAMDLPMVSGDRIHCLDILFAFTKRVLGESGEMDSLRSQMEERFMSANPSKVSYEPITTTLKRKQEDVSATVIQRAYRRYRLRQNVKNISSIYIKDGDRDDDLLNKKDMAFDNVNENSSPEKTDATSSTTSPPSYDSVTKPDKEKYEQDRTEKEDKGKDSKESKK

| Compound | IC50 [nM] |
| --- | --- |
| COc1cc(-c2cccc(C(F)(F)F)c2)c(F)cc1N1C(=O)CO[C@@H]2CN(S(=O)(=O)Nc3noc4ccc(C5CC5)cc34)CC[C@H]21 (single isomer, unassigned) [Example 93] | 110 |

Same assay, conditions: holding potential −50 mV, inhibition based on 7.5 min compound incubation, read-out: hNaV1.7 EP_SP

| Compound | IC50 [nM] |
| --- | --- |
| O=C(NS(=O)(=O)c1cnn(-c2cccc(C(F)(F)F)c2)c1)c1cc(Cl)c(OCC2CCCC2)cc1F [Example 259, 5-chloro-4-(cyclopentylmethoxy)-2-fluoro-N-((1-(3-(trifluoromethyl)phenyl)-1H-pyrazol-4-yl)sulfonyl)benzamide] | 790 |
| O=C(NS(=O)(=O)c1ccc(OCc2ccccc2)cc1)c1cc(C2CC2)c(OCC2CCCC2)cc1F [Example 83, N-((4-(benzyloxy)phenyl)sulfonyl)-4-(cyclopentylmethoxy)-5-cyclopropyl-2-fluorobenzamide] | 92 |
| CN1CC(OC2CCN(S(=O)(=O)NC(=O)c3cc(C4CC4)c(OCC4CCCC4)cc3F)CC2)C1 [Example 4, 4-(cyclopentylmethoxy)-5-cyclopropyl-2-fluoro-N-((4-((1-methylazetidin-3-yl)oxy)piperidin-1-yl)sulfonyl) benzamide] | 15 |
| N#Cc1ccc(S(=O)(=O)NC(=O)c2cc(Cl)c(OCC3CCCC3)cc2F)c(F)c1 [Example 272, 5-chloro-N-((4-cyano-2-fluorophenyl)sulfonyl)-4-(cyclopentylmethoxy)-2-fluorobenzamide] | 210 |
| O=C(NS(=O)(=O)C1CCCCC1)c1cc(Cl)c(OCC2CCCC2)cc1F [Example 82, 5-chloro-N-(cyclohexylsulfonyl)-4-(cyclopentylmethoxy)-2-fluorobenzamide] | 30 |
| CC(C)c1cc(C(=O)NS(=O)(=O)N2CCC(OC3CN(C)C3)CC2)c(F)cc1OCC1CCCC1 [Example 5, 4-(cyclopentylmethoxy)-2-fluoro-5-isopropyl-N-((4-((1-methylazetidin-3-yl)oxy)piperidin-1-yl)sulfonyl)benzamide] | 39 |
| O=C(NS(=O)(=O)c1ccc(O[C@@H]2CCNC2)cc1)c1cc(Cl)c(OCC2CCCC2)cc1F (single isomer, unassigned) [Example 69] | 130 |
| O=C(NS(=O)(=O)c1ccc2c(c1)OCCCO2)c1cc(Cl)c(OCC2CCCC2)cc1F [Example 289, 5-chloro-4-(cyclopentylmethoxy)-N-((3,4-dihydro-2H-benzo[b][1,4]dioxepin-7-yl)sulfonyl)-2-fluorobenzamide] | 710 |
| C[C@H]1C[C@@H]1S(=O)(=O)NC(=O)c1cc(Cl)c(OCC2CCCC2)cc1F (single isomer, unassigned) [Example 250] | 9.8 |
| NC[C@@H]1CN(S(=O)(=O)NC(=O)c2cc(Cl)c(OCC3CCCC3)cc2F)CCO1 (single isomer, unassigned) [Example 24, 2,2,2-trifluoroacetate] | 100 |
| O=C(NS(=O)(=O)C1=Cc2ccccc2CC1)c1cc(Cl)c(OCC2CCCC2)cc1F [Example 275, 5-chloro-4-(cyclopentylmethoxy)-N-((3,4-dihydronaphthalen-2-yl)sulfonyl)-2-fluorobenzamide] | 510 |
| O=C(NS(=O)(=O)N1CCC(OC2CCCNC2)CC1)c1cc(Cl)c(OCC2CCCC2)cc1F (racemic) [Example 51, 5-chloro-4-(cyclopentylmethoxy)-2-fluoro-N-((4-(piperidin-3-yloxy)piperidin-1-yl)sulfonyl)benzamide 2,2,2-trifluoroacetate] | 68 |
| O=C(NS(=O)(=O)c1c(F)cccc1F)c1cc(Cl)c(OCC2CCCC2)cc1F [Example 79, 5-chloro-4-(cyclopentylmethoxy)-N-((2,6-difluorophenyl)sulfonyl)-2-fluorobenzamide] | 100 |
| CN(C)[C@H]1CCCC[C@@H]1Nc1cc(F)c(S(=O)(=O)NC(=O)c2cc(C3CC3)c(OCC3CCCC3)cc2F)c(F)c1 [Example 204, 4-(cyclopentylmethoxy)-5-cyclopropyl-N-((4-(((1S,2S)-2-(dimethylamino)cyclohexyl)amino)-2,6-difluorophenyl)sulfonyl)-2-fluorobenzamide] | 10 |
| O=C(NS(=O)(=O)c1ccc(OCC2CNC2)cc1)c1cc(Cl)c(OCC2CCCC2)cc1F [Example 296, N-((4-(azetidin-3-ylmethoxy)phenyl)sulfonyl)-5-chloro-4-(cyclopentylmethoxy)-2-fluorobenzamide] | 280 |
| O=C(NS(=O)(=O)N1CC(OC2CCNCC2)C1)c1cc(Cl)c(OCC2CCCC2)cc1F [Example 50, 5-chloro-4-(cyclopentylmethoxy)-2-fluoro-N-((3-(piperidin-4-yloxy)azetidin-1-yl)sulfonyl)benzamide] | 260 |
| O=C(NS(=O)(=O)N1CCC(OC2CCNCC2)CC1)c1cc(Cl)c(OCC2CCCC2)cc1F [Example 53, 5-chloro-4-(cyclopentylmethoxy)-2-fluoro-N-((4-(piperidin-4-yloxy)piperidin-1-yl)sulfonyl) benzamide] | 250 |
| CN(C)[C@H]1C[C@@H](c2cccc(C(F)(F)F)c2)CC[C@@H]1Oc1ccc(S(=O)(=O)NC(=O)c2cc(C3CC3)ccc2F)c(F)c1 [Example 75, 5-cyclopropyl-N-((4-(((1S,2S,4S)-2-(dimethylamino)-4-(3-(trifluoromethyl)-phenyl)cyclohexyl)oxy)-2-fluorophenyl)sulfonyl)-2-fluorobenzamide] | 120 |

| Compound | IC50 [nM] |
| --- | --- |
| COc1ccccc1COc1ccc(S(=O)(=O)NC(=O)c2cc(Cl)c(OCC3CCCC3)cc2F)cc1 [Example 318, 5-chloro-4-(cyclopentylmethoxy)-2-fluoro-N-((4-((2-methoxybenzyl)oxy)phenyl)sulfonyl)benzamide] | 190 |
| O=C(NS(=O)(=O)c1ccc(Oc2ccccc2)cc1)c1cc(Cl)c(OCC2CCCC2)cc1F [Example 263, 5-chloro-4-(cyclopentylmethoxy)-2-fluoro-N-((4-phenoxyphenyl)sulfonyl)benzamide] | 220 |
| CN(C)[C@H]1CCCC[C@@H]1Nc1ccc(S(=O)(=O)Nc2nc3ccc(OCC4CCCC4)cc3s2)c(F)c1 [Example 96, N-(6-(cyclopentylmethoxy)benzo[d]thiazol-2-yl)-4-(((1S,2S)-2-(dimethyl-amino)cyclohexyl)-amino)-2-fluorobenzenesulfonamide formate] | 8.8 |
| O=C(NS(=O)(=O)N1CC[C@H]2CCC[C@@H]21)c1cc(Cl)c(OCC2CCCC2)cc1F (single isomer, unassigned) [Example 221] | 16 |
| O=C(NS(=O)(=O)c1ccc(NC2CCCCC2)cc1F)c1cc(Cl)c(OCC2CCCC2)cc1F [Example 208, 5-chloro-N-((4-(cyclohexylamino)-2-fluorophenyl)sulfonyl)-4-(cyclopentylmethoxy)-2-fluorobenzamide] | 880 |
| Cc1cc(C)cc(COc2ccc(S(=O)(=O)NC(=O)c3cc(Cl)c(OCC4CCCC4)cc3F)cc2)c1 [Example 303, 5-chloro-4-(cyclopentylmethoxy)-N-((4-((3,5-dimethyl-benzyl)oxy)phenyl)sulfonyl)-2-fluorobenzamide] | 260 |
| COc1ccc(S(=O)(=O)NC(=O)c2cc(Cl)c(OCC3CCCC3)cc2F)cc1 [Example 81, 5-chloro-4-(cyclopentylmethoxy)-2-fluoro-N-((4-methoxyphenyl)sulfonyl)-benzamide] | 140 |
| COC1CCN(S(=O)(=O)NC(=O)c2cc(Cl)c(OCC3CCCC3)cc2F)CC1 [Example 20, 5-chloro-4-(cyclopentylmethoxy)-2-fluoro-N-((4-methoxypiperidin-1-yl)sulfonyl)benzamide] | 49 |
| CN1CCC(S(=O)(=O)NC(=O)c2cc(Cl)c(OCC3CCCC3)cc2F)C1 (stereo not shown) [Example 323, 5-chloro-4-(cyclopentylmethoxy)-2-fluoro-N-((1-methylpyrrolidin-3-yl)sulfonyl)benzamide] | 470 |
| CC[C@H](C)S(=O)(=O)NC(=O)c1cc(Cl)c(OCC2CCCC2)cc1F (single isomer, unassigned) [Example 254] | 14 |
| O=C(NS(=O)(=O)Cc1cccc(F)c1F)c1cc(Cl)c(OCC2CCCC2)cc1F [Example 268, 5-chloro-4-(cyclopentylmethoxy)-N-((2,3-difluorobenzyl)sulfonyl)-2-fluorobenzamide] | 88 |
| COc1cc(F)c(C(=O)NS(=O)(=O)c2ccc(O[C@H]3CC[C@H](c4cccc(C(F)(F)F)c4)C[C@@H]3N(C)C)cc2F)cc1C1CC1 [Example 74, 5-cyclopropyl-N-((4-(((1S,2S,4S)-2-(dimethylamino)-4-(3-(trifluoro-methyl)phenyl)cyclohexyl)oxy)-2-fluorophenyl)sulfonyl)-2-fluoro-4-methoxybenzamide] | 5.5 |
| Cc1csc(S(=O)(=O)NC(=O)c2cc(Cl)c(OCC3CCCC3)cc2F)c1 [Example 252, 5-chloro-4-(cyclopentylmethoxy)-2-fluoro-N-((4-methylthiophen-2-yl)sulfonyl)benzamide] | 110 |
| O=C(NS(=O)(=O)c1ccc(OCC2CCCN2)cc1)c1cc(Cl)c(OCC2CCCC2)cc1F (stereo not shown) [Example 305, 5-chloro-4-(cyclopentylmethoxy)-2-fluoro-N-((4-(pyrrolidin-2-ylmethoxy)phenyl)sulfonyl)benzamide] | 360 |
| C[C@H]1Cc2cc(S(=O)(=O)NC(=O)c3cc(Cl)c(OCC4CCCC4)cc3F)ccc2O1 [Example 270, (S)-5-chloro-4-(cyclopentylmethoxy)-2-fluoro-N-((2-methyl-2,3-dihydrobenzofuran-5-yl)sulfonyl)benzamide] | 380 |
| O=C(NS(=O)(=O)c1ccc(OCc2ncccn2)cc1)c1cc(Cl)c(OCC2CCCC2)cc1F [Example 295, 5-chloro-4-(cyclopentylmethoxy)-2-fluoro-N-((4-(pyrimidin-2-ylmethoxy)phenyl)sulfonyl)benzamide] | 230 |
| O=C(NS(=O)(=O)c1ccc(OCc2ccncc2)cc1)c1cc(Cl)c(OCC2CCCC2)cc1F [Example 85, 5-chloro-4-(cyclopentylmethoxy)-2-fluoro-N-((4-(pyridin-4-ylmethoxy)-phenyl)sulfonyl)benzamide] | 16 |
| O=C(NS(=O)(=O)c1ccc(OCc2ccccn2)cc1)c1cc(Cl)c(OCC2CCCC2)cc1F [Example 301, 5-chloro-4-(cyclopentylmethoxy)-2-fluoro-N-((4-(pyridin-2-ylmethoxy)phenyl)sulfonyl)benzamide] | 39 |
